From patent US20140227173A1, “CANCER TREATMENT WITH GAMMA-SECRETASE INHIBITORS” (The Johns Hopkins University, priority 2006, published 2014)
Entries after “also recorded” stand apart in the source; their conditions may differ.

Key:
[1] = tested on: DAOY:NICD2; experiment: Flow cytometric analysis of CD133-positive fraction; type: cell-based; conditions: DAOY:NICD2 expressing truncated Notch2; 2 μM
Protocol: Consistent with the hypothesis that Notch is important in CSC, gain or loss of pathway activity modulated the size of the CD133-expressing stem-like subpopulation (FIG. 4B). This fraction was elevated to 17.2% in DAOY cells stably transfected with a plasmid encoding the constitutively active Notch2 intracellular domain (DAOY:NICD2). In contrast, Notch pathway inhibition using GSI-18, a potent sulfonamide GSI (21), reduced the CD133-positive stem-like fraction […] to 3.3% (p<0.01). […] 2 μM GSI-18 was used in these experiments, as both mRNA and protein levels of the Notch pathway target Hes1 are reduced over 70% after 48 hours by this concentration of the drug (FIG. 4E).
The DAOY, PFSK, D283 and D425 Med cell lines were obtained from the American Type Culture Collection. The low-passage MB line MB2 was derived from a tumor resected at Johns Hopkins Hospital. […] Cell mass was measured using CellTITER assays according to the manufacturer's instructions (Promega, Madison, Wis.). Cell number and viability were assessed using the Guava PCA and Viacount reagent according to instructions (Guava Technologies, Heyward, Calif.). Soft agar assays were performed as previously described (15) and scored either manually after 4 weeks or using as automated reader after 6 weeks. […] Soft agar assays were performed as previously described, with colonies counted using an automated reader (15). […]

[2] = tested on: Notch pathway target Hes1; experiment: Hes1 mRNA and protein levels (RT PCR, Western blot); type: cell-based
Protocol: (§1) The DAOY, PFSK, D283 and D425 Med cell lines were obtained from the American Type Culture Collection. The low-passage MB line MB2 was derived from a tumor resected at Johns Hopkins Hospital. For treatment studies, cell were plated and allowed to grow overnight in MEM (Invitrogen, Carlsbad, Calif.) containing 10% FBS, then media was replaced the next morning with low serum (0.5% FBS) MEM containing GSI dissolved in DMSO. RNA and protein extractions, and all cell-based assays, were performed 48 hours after drug application unless otherwise noted. All experiments with error bars were performed in triplicate and shown as mean values with standard error unless otherwise noted. Cell mass was measured using CellTITER assays according to the manufacturer's instructions (Promega, Madison, Wis.). Cell number and viability were assessed using the Guava PCA and Viacount reagent according to instructions (Guava Technologies, Heyward, Calif.). Soft agar assays were performed as previously described (15) and scored either manually after 4 weeks or using as automated reader after 6 weeks. […] Soft agar assays were performed as previously described, with colonies counted using an automated reader (15).
Quantitative RT PCR for Notch1, Notch2 and Hes1 was performed as previously described (29), with all reactions normalized to actin (Applied Biosystems, Foster City, Calif.). […]

[3] = tested on: Akt; experiment: Akt phosphorylation and Caspase3 cleavage in GBM neurosphere cells; type: cell-based
Protocol: (§2) (A) Increase of cleaved Caspase 3 and loss of Akt phosphorylation is induced by 0.4 uMor higher levels of GSI-18, while overall levels of Akt and GAPDH are unchanged in DAOY medulloblastoma cells. (B) Cell death in 2 uM GSI-18 is reduced in a representative subclone of DAOY expressing activated Akt as compare to vector transfected cells. (C) Loss of Akt phosphorylation and activation of Caspase3 cleavage is induced by 2 μM or higher levels of GSI-18, while overall levels of Akt and GAPDH are unchanged in GBM neurosphere cells.
It has been shown that the Notch signaling pathway regulates normal stem cells in the Central Neural System (CNS), and that GBMs contain cancer stem cells (CSCs) with higher Notch activity (Cancer Research, 64:7011-21, 2004; Cancer Cell, 9:391-403, 2006). However, it has not been known if Notch pathway blockade could target CSCs in GBM. […] In the present study, we used GBM neurospheres to examine the effects of Notch pathway blockade in GBM. […] Furthermore, overexpression of an active form of Notch2 (NICD2) increases tumor growth in vitro.

[4] = tested on: DAOY expressing activated Akt; experiment: Apoptosis and growth in DAOY subclones expressing constitutively active Akt; type: cell-based
Protocol: as §2
It has previously been shown that Akt is a critical effector of Notch-regulated survival and growth outside the brain (26, 27). Therefore, it was examined whether Akt was also a mediator of the pro-survival and pro-growth effects of Notch in brain tumors. GSI-18 blocks the phosphorylation of Akt required for its activation at concentrations as low as 0.4 μM (FIG. 7F). […] Thus the pro-survival effects of Notch signaling in MB appear to be mediated at least in part by Akt.
as §1, with “All experiments with error bars were performed in triplicate and shown as mean values with standard error unless otherwise noted.” left out

[5] = Behavioral or physical changes in treated animals; type: in vivo, mice; conditions: 0.5 mg i.p. for five consecutive days
Protocol: As a test of the requirement for ongoing Notch activity during tumor engraftment, animals were treated with GSI-18 after subcutaneously injecting DAOY and DAOY:NICD2 cells into their left and right flanks. A treatment group of four mice received intraperitoneal injections containing 0.5 mg GSI-18 in DMSO for five consecutive days, beginning on the day of xenograft initiation, while the control group was treated with vehicle alone.

[6] = tested on: GBM20913; experiment: Survival of mice bearing intracranial xenografts of pretreated GBM neurosphere cells; type: in vivo; conditions: vs vehicle (DMSO) treated cells

With `O=S(=O)(NC1C2CCC1Cc1ccccc1C2)c1cccs1` (stereo not drawn) [GSI-18, [11-endo]-N-(5,6,7,8,9,10-hexahydro-6,9-methanobenzo[α][8]annulen-11-yl)-thiophene-2-sulfonamide] the “sensitivity of CD133-positive fraction to the inhibitor” value [1] was “insensitive to GSI-18”, the “reduction of mRNA and protein levels of Hes1” value ([2]; 2 μM, after 48 hours) was “over 70%” and the “levels that did not affect Hes1 mRNA levels” value ([2]; data not shown) was “lower than 0.4 μM”. The “levels inducing loss of Akt phosphorylation and activation of Caspase3 cleavage” value ([3]; GBM neurosphere cells) was ≥ 2 µM, the “expression of cleaved caspase 3 and phosphorylated Akt” value ([3]; GBM neurosphere lines) was “Increased expression of cleaved caspase 3 and reduced expression of phosphorelated Akt” and the “cell death vs vector transfected cells” value ([4]; 2 uM, representative subclone of DAOY expressing activated Akt) was “reduced”. The “apoptotic rate on exposure” value ([4]; MB cells stably transfected with constitutively active Akt, 2 μM) was “not significantly increased”, the “inhibition of cell growth in Akt-transfected subclones” value ([4]; two DAOY subclones with constitutively active Akt, data not shown) was “partially rescued” and the “behavioral or physical changes” value [5] was “No behavioral or physical changes were noted”. For the same compound, the “survival of mice with intracranial xenografts from pretreated cells” value [6] was “prolonged survival; also recorded: longer survival”.
